Like-named read-outs stand apart in the source and are kept apart here.
How the values were obtained:
HeLa cells = assay: Cell antiproliferative activity assay (CCK8); assay type: cell-based, human; details: Homo sapiens; for inhibition at 0.25 µM: 250 nM; for inhibition at 0.5 µM: 500 nM; for inhibition at 1 µM: 1000 nM; for inhibition at 2 µM: 2000 nM; for inhibition at 4 µM: 4000 nM; for inhibition at 8 µM: 8000 nM; for inhibition at 16 µM: 16000 nM
Experimental: Cell antiproliferative activity was evaluated by the Cell Counting Kit-8 (CCK8, DOJINDO, Japan) assay. The cells were seeded at a density of 2,000 cells per well into 96-well microplate in 100 μl of growth medium. Cells were incubated at 37°C and 5% CO2 overnight. The next day, 100 μl per well of diluted inhibitor in growth medium was added with the final concentration from 0.1 nM to 100 μM. The cells were treated with DMSO as control. A series of dilutions are made in 0.1% DMSO in assay medium so that the final concentration of DMSO is 0.1% in all of treatments. Cells were incubated at 37°C and 5% CO2 for 48 h. Then, 10 μl of CCK8 was added to each well. The plates were incubated at 37°C for 2 h; after that, the plates were recorded by measuring absorbance at 450 nm with the reference wavelength of 630 nm using an EnVision Multilabel Reader (PerkinElmer). The IC50 values were calculated using GraphPad Prism 6.0 software and determined by the concentration causing a half-maximal percent activity. All assays were conducted with three parallel samples and three repetitions.

[1] = HeLa, 48 h, HeLa cells, CCK8, 48 h, mean ± SD, n = 3, read-out: IC50 (μM) HeLa
[2] = HeLa, HELA 2000cells/well, supplement DataSheet2, Repeat1, read-out: IC50 Repeat1
[3] = HeLa, HELA 2000cells/well, supplement DataSheet2, Repeat 2, read-out: IC50 Repeat 2
[4] = HeLa, HELA 2000cells/well, supplement DataSheet2, mean of two repeats ± SD, read-out: IC50 mean±SD
[5] = HELA 2000cells/well, Repeat1, read-out: Inhibition (%) Repeat1
[6] = HELA 2000cells/well, Repeat2, read-out: Inhibition (%) Repeat2

Structure (SMILES)	melting point [°C]	IC50 (HeLa cells; [1]) [µM]	IC50 (HeLa cells; [2]) [µM]	IC50 (HeLa cells; [3]) [µM]	IC50 (HeLa cells; [4]) [µM]	inhibition at 0.25 µM (HeLa cells; [5]) [%]	inhibition at 0.25 µM (HeLa cells; [6]) [%]	inhibition at 0.5 µM (HeLa cells; [5]) [%]	inhibition at 0.5 µM (HeLa cells; [6]) [%]	inhibition at 1 µM (HeLa cells; [5]) [%]	inhibition at 1 µM (HeLa cells; [6]) [%]	inhibition at 2 µM (HeLa cells; [5]) [%]	inhibition at 2 µM (HeLa cells; [6]) [%]	inhibition at 4 µM (HeLa cells; [5]) [%]	inhibition at 4 µM (HeLa cells; [6]) [%]	inhibition at 8 µM (HeLa cells; [5]) [%]	inhibition at 8 µM (HeLa cells; [6]) [%]	inhibition at 16 µM (HeLa cells; [5]) [%]	inhibition at 16 µM (HeLa cells; [6]) [%]	IC50 (HeLa cells; HeLa cells, CCK8, 48 h, mean ± SD, n = 3, read-out: IC50 (μM) HeLa) [µM]
COCCOc1cc2ncnc(Nc3cccc(-c4cn(-c5ccc(Br)cc5)nn4)c3)c2cc1OCCOC [Compound 4j, [6,7-Bis-(2-methoxy-ethoxy)-quinazolin-4-yl]-{3-[1-(4-bromo-phenyl)-1H-[1,2,3]triazol-4-yl]-phenyl}-amine]	105 to 108	12.2 ± 1	11.3	13.3	12.2 ± 1.01	0	2.88	0.0873	2.97	0.96	4.36	4.01	4.89	8.03	8.64	26.2	17.7	73.6	63.3	–
COCCOc1cc2ncnc(Nc3cccc(-c4cn(Cc5ccccc5I)nn4)c3)c2cc1OCCOC [Compound 4b, [6,7-Bis-(2-methoxy-ethoxy)-quinazolin-4-yl]-{3-[1-(2-iodo-benzyl)-1H-[1,2,3]triazol-4-yl]-phenyl}-amine]	93 to 96	11.5 ± 1.69	9.72	13.1	11.5 ± 1.69	8.56	0	12.5	0	13.3	3.42	17.6	7.96	37.8	28.2	52	40.8	54.8	51.1	–
COCCOc1cc2ncnc(Nc3cccc(-c4cn(-c5cccc([N+](=O)[O-])c5)nn4)c3)c2cc1OCCOC [Compound 4m, [6,7-Bis-(2-methoxy-ethoxy)-quinazolin-4-yl]-{3-[1-(3-nitro-phenyl)-1H-[1,2,3]triazol-4-yl]-phenyl}-amine]	98 to 101	3.79 ± 0.1	3.89	3.69	3.79 ± 0.103	0	7.86	3.48	5.51	8.91	15.1	42.2	42.1	54.2	56.2	67.5	66.5	77.1	77.2	–
C#Cc1cccc(Nc2ncnc3cc(OCCOC)c(OCCOC)cc23)c1 [Erlotinib, erlotinib]	–	–	–	–	–	–	–	–	–	–	–	–	–	–	–	–	–	–	–	39.5 ± 3.34
COCCOc1cc2ncnc(Nc3cccc(-c4cn(Cc5ccccc5Br)nn4)c3)c2cc1OCCOC [Compound 4c, [6,7-Bis-(2-methoxy-ethoxy)-quinazolin-4-yl]-{3-[1-(2-bromo-benzyl)-1H-[1,2,3]triazol-4-yl]-phenyl}-amine]	94 to 97	21.3 ± 7.79	14.8	30.4	–	2.33	0	4.15	1.82	4.75	2.33	15.8	9.94	35.6	21.3	42.4	29.7	45	34.1	–

Further lines, with some results ahead:

melting point [°C]	IC50 (HeLa cells; [1]) [µM]	IC50 (HeLa cells; [2]) [µM]	IC50 (HeLa cells; [3]) [µM]	IC50 (HeLa cells; [4]) [µM]	Structure (SMILES)	inhibition at 0.25 µM (HeLa cells; [5]) [%]	inhibition at 0.25 µM (HeLa cells; [6]) [%]	inhibition at 0.5 µM (HeLa cells; [5]) [%]	inhibition at 0.5 µM (HeLa cells; [6]) [%]	inhibition at 1 µM (HeLa cells; [5]) [%]	inhibition at 1 µM (HeLa cells; [6]) [%]	inhibition at 2 µM (HeLa cells; [5]) [%]	inhibition at 2 µM (HeLa cells; [6]) [%]	inhibition at 4 µM (HeLa cells; [5]) [%]	inhibition at 4 µM (HeLa cells; [6]) [%]	inhibition at 8 µM (HeLa cells; [5]) [%]	inhibition at 8 µM (HeLa cells; [6]) [%]	inhibition at 16 µM (HeLa cells; [5]) [%]	inhibition at 16 µM (HeLa cells; [6]) [%]	IC50 (HeLa cells; HeLa cells, CCK8, 48 h, mean ± SD, n = 3, read-out: IC50 (μM) HeLa) [µM]
83 to 86	30.7 ± 1.83	32.4	28.7	30.7 ± 1.83	COCCOc1cc2ncnc(Nc3cccc(-c4cn(-c5ccccc5F)nn4)c3)c2cc1OCCOC [Compound 4f, [6,7-Bis-(2-methoxy-ethoxy)-quinazolin-4-yl]-{3-[1-(2-fluoro-phenyl)-1H-[1,2,3]triazol-4-yl]-phenyl}-amine]	2.17	0	2.51	0.418	3.51	0.502	4.77	2.17	8.86	3.18	29.8	23.1	31.1	30.4	–
89 to 92	> 50	–	–	–	COCCOc1cc2ncnc(Nc3cccc(-c4cn(Cc5ccccc5)nn4)c3)c2cc1OCCOC [Compound 4a, [3-(1-Benzyl-1H-[1,2,3]triazol-4-yl)-phenyl]-[6,7-bis-(2-methoxy-ethoxy)-quinazolin-4-yl]-amine]	0	4.4	8.2	5.61	8.54	6.73	8.54	6.73	12.1	12.1	12.5	13.8	16.3	15.5	–
88 to 91	9.05 ± 0.53	8.57	9.64	9.06 ± 0.531	COCCOc1cc2ncnc(Nc3cccc(-c4cn(-c5ccc(F)cc5)nn4)c3)c2cc1OCCOC [Compound 4g, [6,7-Bis-(2-methoxy-ethoxy)-quinazolin-4-yl]-{3-[1-(4-fluoro-phenyl)-1H-[1,2,3]triazol-4-yl]-phenyl}-amine]	0	2.88	0.279	5.02	2.88	5.02	20.6	17.7	37.5	38.5	51.1	50.1	59.4	54.7	–
–	> 50	–	–	–	COCCOc1cc2ncnc(Nc3cccc(-c4cn(-c5cccc(OC)c5)nn4)c3)c2cc1OCCOC [Compound 4e, [6,7-Bis-(2-methoxy-ethoxy)-quinazolin-4-yl]-{3-[1-(3-methoxy-phenyl)-1H-[1,2,3]triazol-4-yl]-phenyl}-amine]	0.801	0	4.97	2.08	7.13	3.04	14.1	5.45	15	13.5	16.5	15.1	18.2	15.9	–
131 to 134	8.85 ± 0.56	8.32	9.44	8.86 ± 0.559	COCCOc1cc2ncnc(Nc3cccc(-c4cn(-c5ccccc5Cl)nn4)c3)c2cc1OCCOC [Compound 4h, [6,7-Bis-(2-methoxy-ethoxy)-quinazolin-4-yl]-{3-[1-(2-chloro-phenyl)-1H-[1,2,3]triazol-4-yl]-phenyl}-amine]	0	1.75	7.08	3.15	7.26	6.12	13.4	11.2	31.3	29.2	54.3	51.4	63.2	59.4	–

Source: article PMC8802806, “Synthesis and Antitumor Activity of Erlotinib Derivatives Linked With 1,2,3-Triazole” (Frontiers in Pharmacology, 2022)
